Measured values as given in EPA's ToxValDB 9.5 (doi:10.2903/j.efsa.2010.1704).
Converted amounts (≈) assume the structure as drawn.

Columns and labels:
[1] = test system: Anas platyrhynchos; settings: oral, mortality
[2] = test system: Oryctolagus sp.; settings: reproduction developmental; body weight
[3] = test system: Colinus virginianus; settings: acute, oral, mortality
[4] = test system: Typhlodromus pyri; settings: acute; duration: 7 days; mortality
[5] = test system: Apis mellifera; settings: acute; duration: 48 hours; oral; unspecified; mortality
[6] = test system: Oncorhynchus mykiss; settings: acute; duration: 96 hours; mortality
[7] = test system: Daphnia magna; settings: chronic/long-term; duration: 21 days; reproduction
[8] = test system: Pimephales promelas; settings: chronic/long-term; duration: 35 days; growth
[9] = test system: Coturnix japonica; settings: reproduction developmental
[10] = test system: Canidae; settings: oral, Dog Other, organ weight
[11] = test system: Tagia sp.
[12] = test system: Rattus norvegicus

## Clc1ccc(C2(Cn3cncn3)CC(Br)CO2)c(Cl)c1 (stereo not given) [Bromuconazole]
[1]; acute, unspecified
  LD50: > 2150 mg/kg-day
[1]; short-term, feed
  LC50: > 684 mg/kg-day
[2]
  NOEL: 12.5 mg/kg-day
[3]; diet
  LC50: > 778 mg/kg-day
[3]
  LD50: > 2150 mg/kg-day
[4]
  LEL: 260 g/ha
[5]
  LD50: > 100 µg/piece
[6]
  LC50: 1.7 µg/mL (≈ 4.51 µM)
[7]
  NOEC: 0.02 mg/L
[8]
  NOEC: 0.065 mg/L
[9]
  NOEC: 26.5 mg/kg-day
[10]; chronic, duration: 1 years
  NOAEL: 2.5 mg/kg-day
[10]; subchronic, duration: 90 days
  NOAEL: 2.5 mg/kg-day
[11]; acute, duration: 14 days, mortality
  LC50: > 1000 mg/kg
[11]; chronic/long-term, duration: 56 days
  NOEC: 37.2 mg/kg
[12]; acute, oral, F, mortality
  LD50: 328 mg/kg-day
[12]; chronic, duration: 2 years, oral, diet, histopathology: nonneoplastic
  NOAEL: 0.88 mg/kg-day
[12]; chronic, histopathology: nonneoplastic
  NOEL: 13.8 mg/kg-day
[12]; developmental, development
  NOAEL: 10 mg/kg-day
[12]; reproduction developmental, body weight
  NOEL: 1.3 mg/kg-day
